Values of other authors in publication PMC7664160 (ACS infectious diseases, 2020).

Test system: intracellular C. neoformans

SMILES: C[C@@H]1[C@H](O)[C@@H](C)/C=C/C=C/C=C/C=C/C=C/C=C/C=C/[C@H](O[C@@H]2O[C@H](C)[C@@H](O)[C@H](N)[C@@H]2O)C[C@@H]2O[C@](O)(C[C@@H](O)C[C@@H](O)[C@H](O)CC[C@@H](O)C[C@@H](O)CC(=O)O[C@H]1C)C[C@H](O)[C@H]2C(=O)O [amphotericin B]
- fungicidal activity against intraphagocytic C. neoformans: neither fluconazole nor amphotericin B have fungicidal activity

SMILES: OC(Cn1cncn1)(Cn1cncn1)c1ccc(F)cc1F [fluconazole]
- fungicidal activity against intraphagocytic C. neoformans: neither fluconazole nor amphotericin B have fungicidal activity
